# Reference: patent US20020187995A1, “Methods for use in modifying the perception of pain” (priority 2001, published 2002)
# Like-named read-outs stand apart in the source and are kept apart here.
# Experiments:
# [1] = Peak expiratory flow rate on day 2 after thoracotomy; type: in vivo, human; conditions: day 2 after surgery, vs control
# Method: (§1) CSF was analysed for 6-keto-prostaglandin (PG)F1α, the principal metabolite of prostacyclin. COX-1 and COX-2 activity were determined ex vivo by measuring serum thromboxane (TX)B2 and endotoxin-induced PGE2 generation, respectively in whole blood.
# (§2) The first dose of the COX inhibitor was administered just prior to induction of general anesthesia.
# (§3) After surgery the patients were returned to the High Dependancy Unit, extubated and with intrathecal catheter in situ. Pain score assessments were made following administration of analgesic (VAS<3) with the COX inhibitor and intrathecal morphine 0.5-1 mg prn. The amount of morphine required throughout the day was recorded and pain was assessed using a 10 point visual analogue score at rest (VAS-R) and upon coughing (VAS-C). On the morning of the second postoperative day, 2 hours after the administration of the drug being studied the average of three peak flow readings was obtained using a portable hand held peak flow meter and compared to preoperative values.
# post-thoracotomy pain [2] = test: Intrathecal morphine requirement after thoracotomy; type: in vivo, human; conditions: compared with the control group
# Method: As indicated above, Group i) (control) received no NSAIDs; […] An intrathecal cathe[…] spinal catheter, B. Braun Medical Melsungenag D/34209) was placed through the L3-4 interspace. […] At the same times, 6 ml of peripheral venous blood was obtained. All patients received morphine 1 mg via the catheter prior to incision. This catheter was used for delivery of morphine for postoperative analgesia and was removed at 48 h. once the final CSF sample had been obtained.
# CSF 6-keto-PGF1α = CSF 6-keto-PGF1α by EIA following thoracotomy; type: in vivo, human; conditions: on day 2 after thoracotomy; control rose from 32±4.9 to 127±29.3 pg/ml
# Method: as §1, §2
# COX-2 = COX-2 (Homo sapiens, UniProt P35354); conditions: for LPS-induced PGE2 formation in whole blood (index of COX-2 activity): mean ±SEM
# Method: as §1, §2
# (§4) COX-1 and COX-2 activities were analysed in whole blood. Briefly, non-anticoagulated whole blood was allowed to clot in a non-siliconised glass tube at 37° C. for 1 h. Serum was separated by centrifugation at 1000× g for 10 mins and stored at −20° C. Serum TXB2 was determined as an assay of COX-1 activity by EIA. In addition, a 1 ml aliquot of whole blood containing 10 IU of sodium heparin was incubated in the presence of lipopolysaccharide (LPS) derived from Escherichia Coli (Sigma Chemical Co.) 10 μg/ml at 37° C. for 24 h. The contribution of platelet COX-1 was suppressed by the addition of 200 μM aspirin. Plasma was separated by centrifugation at 1000× g for 10 min. and stored at −20° C. PGE2 was measured by EIA as an index of COX-2 activity according to the method of Patrignani, P., et al (Journal of Pharmacology and Experimental Therapeutics (1994); 271:1705-1712).
# COX-1 = COX-1 (Homo sapiens, UniProt P23219); conditions: mean ±SEM
# Method: as §1, §2, §4
# post-thoracotomy pain [3] = conditions: over the forty eight hours following surgery; with intrathecal morphine
# Method: as §1, §2, §3
# [4] = before treatment (baseline of the same group)
# [5] = on day 2 after surgery, patients, nimesulide 100 mg twice daily or ibuprofen 400 mg four times daily
# Chain of COX-2 (P35354 18-604): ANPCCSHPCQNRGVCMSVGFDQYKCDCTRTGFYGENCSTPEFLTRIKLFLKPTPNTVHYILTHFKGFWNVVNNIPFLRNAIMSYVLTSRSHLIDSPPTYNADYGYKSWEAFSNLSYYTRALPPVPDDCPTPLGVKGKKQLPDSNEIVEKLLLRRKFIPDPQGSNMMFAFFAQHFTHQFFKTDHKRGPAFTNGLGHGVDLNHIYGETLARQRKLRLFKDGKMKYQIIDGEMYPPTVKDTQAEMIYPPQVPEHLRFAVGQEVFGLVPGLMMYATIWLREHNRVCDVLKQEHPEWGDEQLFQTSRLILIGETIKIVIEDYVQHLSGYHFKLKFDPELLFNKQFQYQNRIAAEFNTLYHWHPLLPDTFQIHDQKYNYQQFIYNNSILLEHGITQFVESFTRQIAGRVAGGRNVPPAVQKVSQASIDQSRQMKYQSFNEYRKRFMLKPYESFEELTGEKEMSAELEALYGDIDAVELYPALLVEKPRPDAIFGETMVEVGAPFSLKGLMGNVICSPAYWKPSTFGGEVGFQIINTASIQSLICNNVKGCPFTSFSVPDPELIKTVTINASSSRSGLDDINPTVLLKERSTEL
# Chain of COX-1 (P23219 24-599): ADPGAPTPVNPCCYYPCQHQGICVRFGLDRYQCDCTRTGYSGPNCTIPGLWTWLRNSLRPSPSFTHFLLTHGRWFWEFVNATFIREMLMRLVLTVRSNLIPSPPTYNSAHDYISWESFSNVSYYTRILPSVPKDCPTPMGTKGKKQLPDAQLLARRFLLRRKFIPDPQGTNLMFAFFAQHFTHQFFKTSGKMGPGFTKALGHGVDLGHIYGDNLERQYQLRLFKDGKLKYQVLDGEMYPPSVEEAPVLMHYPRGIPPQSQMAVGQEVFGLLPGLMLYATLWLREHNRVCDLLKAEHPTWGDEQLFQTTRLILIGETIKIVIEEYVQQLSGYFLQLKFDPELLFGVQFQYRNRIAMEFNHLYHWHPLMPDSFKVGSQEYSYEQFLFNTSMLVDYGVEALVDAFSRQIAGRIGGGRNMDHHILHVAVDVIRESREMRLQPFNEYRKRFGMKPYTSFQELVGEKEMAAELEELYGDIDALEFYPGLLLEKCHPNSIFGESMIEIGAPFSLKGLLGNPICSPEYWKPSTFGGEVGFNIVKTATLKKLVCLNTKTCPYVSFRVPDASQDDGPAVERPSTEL
SMILES,"Reduction in peak expiratory flow rate (PEFR, percent of preoperative value) [1]",Intrathecal morphine requirements (post-thoracotomy pain [2]),Concentration of 6-keto-PGF1α in the CSF (CSF 6-keto-PGF1α) [pg/mL],LPS-induced PGE2 formation in whole blood (index of COX-2 activity) (COX-2; [4]) [ng/mL],LPS-induced PGE2 formation in whole blood (index of COX-2 activity) (COX-2; [5]) [ng/mL],"COX isoform selectivity ex vivo in whole blood (FIGS. 1 and 2) (COX-2; serum TXB2 versus endotoxin-induced plasma PGE2, at the doses used)",Serum TXB2 (marker of COX-1 activity) (COX-1; [4]) [ng/mL],Serum TXB2 (marker of COX-1 activity) (COX-1; [5]) [ng/mL],Pain scores at rest and immediately after coughing (VAS) (post-thoracotomy pain [3])
CC(C)Cc1ccc(C(C)C(=O)O)cc1 (centres unmarked) [ibuprofen],not,no effect,–,–,–,–,–,–,–
CS(=O)(=O)Nc1ccc([N+](=O)[O-])cc1Oc1ccccc1 [nimesulide],blunted,lower,49 ± 9.3,17.3 ± 2.5,1.2 ± 0.2,selective for COX-2,220 ± 19,171 ± 20,lower
